Patent US20250170112A1, “ADENOSINE LIGANDS FOR THE TREATMENT OF NEUROLOGICAL DISORDERS” (Lucy Therapeutics, Inc., priority 2022, published 2025)

Legend:
human A2B = biological target: T1, human A2B (Homo sapiens, UniProt P29275); assay: cAMP HTRF assay for Gs coupled receptor, agonist test; format: cell-based; conditions: agonist activity; HEK293 cells expressing recombinant human A2B; read-out: A2BAR EC50
T1 construct: expressed in transfected cells; host or cells: HEK293
T1 sequence (P29275 1-332): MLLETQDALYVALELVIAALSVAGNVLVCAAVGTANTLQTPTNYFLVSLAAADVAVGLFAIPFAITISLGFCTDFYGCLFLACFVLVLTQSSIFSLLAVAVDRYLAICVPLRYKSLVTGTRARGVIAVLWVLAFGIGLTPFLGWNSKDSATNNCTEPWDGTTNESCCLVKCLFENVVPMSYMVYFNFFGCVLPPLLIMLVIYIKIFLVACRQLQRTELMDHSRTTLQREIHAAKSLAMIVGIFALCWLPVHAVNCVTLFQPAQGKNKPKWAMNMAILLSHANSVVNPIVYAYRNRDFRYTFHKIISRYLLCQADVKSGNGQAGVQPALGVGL
Summary of the method: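 Recombinant cells were incubated 30 min at room temperature with increasing agonist concentrations. Lysis buffer with cAMP-d2 and anti-cAMP cryptate was added, with 1 h at room temperature before the HTRF fluorescence ratio was read. Reference compounds were run in parallel.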

[1] = biological target: T2, human Adenosine A1 receptor (Homo sapiens, UniProt P30542); assay: GTPγS scintillation proximity assay, agonist testing; format: biochemical; conditions: agonist activity; membrane extracts of CHO-K1 cells expressing recombinant human A1; read-out: A1AR EC50
T2 construct: host or cells: CHO-K1
T2 sequence (P30542 1-326): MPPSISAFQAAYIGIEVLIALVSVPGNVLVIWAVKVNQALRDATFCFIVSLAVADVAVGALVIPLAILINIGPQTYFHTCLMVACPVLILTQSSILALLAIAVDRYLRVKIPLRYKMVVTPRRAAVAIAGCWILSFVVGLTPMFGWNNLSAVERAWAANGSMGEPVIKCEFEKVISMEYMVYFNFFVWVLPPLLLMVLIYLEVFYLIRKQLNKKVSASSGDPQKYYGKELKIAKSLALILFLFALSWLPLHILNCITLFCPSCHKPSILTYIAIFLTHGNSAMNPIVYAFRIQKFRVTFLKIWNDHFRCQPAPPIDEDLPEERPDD
Summary of the method: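 Agonist-stimulated [35S]GTPγS binding to membranes of CHO-K1 cells expressing recombinant human A1 receptor, in 20 mM HEPES pH 7.4, 100 mM NaCl, 10 μg/mL saponin, with receptor-optimized MgCl2 and GDP. GTPγ[35S] 0.1 nM final with WGA SPA beads; 1 h at room temperature, then scintillation counting.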

| EC50 (human A2B) | EC50 [1] | Compound |
| --- | --- | --- |
| > 10000 nM | 997 nM | COCCOc1ccc(-c2c(C#N)c(SCCO)nc(N3CCCC3)c2C#N)cc1 [Compound 117] |
| > 10000 nM | 31 nM | COCCOc1ccc(-c2c(C#N)c(SCc3cccnc3)nc(N3CCC3)c2C#N)cc1 [Compound 115] |
| 6.8 nM | 44 nM | N#Cc1cnc(SCc2cccnc2)c(C#N)c1-c1ccc(OCCO)cc1 [Compound 84] |
| > 10000 nM | 21.6 nM | N#Cc1c(N)nc(SCc2cccnc2)c(C#N)c1-c1ccc(OCCOC(F)F)cc1 [Compound 40] |
| 1970 nM | 3280 nM | N#Cc1c(N)nc(SCc2cnccn2)c(C#N)c1-c1ccc(OCCOC(F)F)cc1 [Compound 235] |
| 0.335 nM | 0.903 nM | N#Cc1c(N)nc(SCc2cccnc2)c(C#N)c1-c1ccc(O[C@H]2CCOC2)cc1 [Compound 240] |
| > 10000 nM | 139 nM | COCCOc1ccc(-c2c(C#N)c(N)nc(SCc3cccc(OC)c3)c2C#N)cc1 [Compound 37] |
| > 10000 nM | 1000 nM | COCCOc1ccc(-c2c(C#N)c(N)nc(SCCNC(C)=O)c2C#N)cc1 [Compound 120] |
| 894 nM | 64.8 nM | Cn1ccc2c(CSc3nc(N)c(C#N)c(-c4ccc(OC5COC5)cc4)c3C#N)cccc21 [Compound 302] |
| 64 nM | 109 nM | N#Cc1c(N)nc(SCCOC(F)F)c(C#N)c1-c1ccc(OCCO)cc1 [Compound 93] |
| > 10000 nM | 281 nM | COCCOc1ccc(-c2c(C#N)cnc(SCC3COC3)c2C#N)cc1 [Compound 64] |
| > 10000 nM | 1070 nM | N#Cc1c(SCc2cccnc2)nc(N2CC(F)C2)c(C#N)c1-c1ccc(OCCOC(F)F)cc1 [Compound 266] |
| > 10000 nM | > 10000 nM | N#Cc1c(SCc2cccnc2)nc(N2CCCC2)c(C#N)c1-c1ccc(OC(F)(F)CO)cc1 [Compound 263] |
| > 10000 nM | > 10000 nM | N#Cc1c(SCc2cccnc2)nc(N2CC(O)C2)c(C#N)c1-c1ccc(OC(F)(F)CO)cc1 [Compound 261] |
| > 10000 nM | 25.2 nM | COc1nc(SCC2COC2)c(C#N)c(-c2ccc(OC3COC3)cc2)c1C#N [Compound 294, 2-Methoxy-6-((oxetan-3-ylmethyl)thio)-4-(4-(oxetan-3-yloxy)phenyl)pyridine-3,5-dicarbonitrile] |
| > 10000 nM | 124 nM | COCCOc1ccc(-c2c(C#N)c(N)nc(SCC3CCOC3)c2C#N)cc1 (stereo not drawn) [Compound 36] |
| > 10000 nM | 55.9 nM | N#Cc1c(SCC2COC2)nc(N2CC(F)C2)c(C#N)c1-c1ccc(OCCO)cc1 [Compound 275] |
| 11 nM | > 10000 nM | N#Cc1c(N)nc(SCc2nccc3[nH]ccc23)c(C#N)c1-c1ccc(OCCO)cc1 [Compound 229] |
| 2960 nM | 91 nM | N#Cc1c(SCC2COC2)nc(N2CCC2)c(C#N)c1-c1ccc(OCCO)cc1 [Compound 63, 2-(Azetidin-1-yl)-4-[4-(2-hydroxyethoxy)phenyl]-6-(oxetan-3-ylmethylsulfanyl)pyridine-3,5-dicarbonitrile] |
| 0.7 nM | 7.2 nM | CC(O)COc1ccc(-c2c(C#N)c(SCc3cccnc3)nc(N3CCC3)c2C#N)cc1 (stereo not drawn) [Compound 53, 2-(azetidin-1-yl)-4-[4-(2-hydroxypropoxy)phenyl]-6-(3-pyridylmethylsulfanyl)-pyridine-3,5-dicarbonitrile] |
| > 10000 nM | > 10000 nM | COCC(F)(F)Oc1ccc(-c2c(C#N)c(N)nc(SCC3COC3)c2C#N)cc1 [Compound 310] |
| > 10000 nM | 23.9 nM | COCCOc1ccc(-c2c(C#N)c(SCc3cccnc3)nc(N3CC(F)C3)c2C#N)cc1 [Compound 277] |
| 142 nM | 1050 nM | N#Cc1c(N)nc(SCc2cccc3[nH]ncc23)c(C#N)c1-c1ccc(OCCO)cc1 [Compound 15] |

| EC50 (human A2B) | EC50 [1] | Compound |
| --- | --- | --- |
| > 10000 nM | 295 nM | N#Cc1c(SCC2COC2)nc(N2CC(F)(F)C2)c(C#N)c1-c1ccc(OCCO)cc1 [Compound 273] |
| > 10000 nM | 353 nM | COCC(F)(F)Oc1ccc(-c2c(C#N)c(N)nc(SCc3cccnc3)c2C#N)cc1 [Compound 306] |
| 94.2 nM | 294 nM | CC(C)(O)COc1ccc(-c2c(C#N)c(SCc3cccnc3)nc(N3CCCC3)c2C#N)cc1 [Compound 50] |
| 299 nM | 69.5 nM | N#Cc1cnc(SCc2cccnc2)c(C#N)c1-c1ccc(OC2COC2)cc1 [Compound 18] |
| > 10000 nM | 643 nM | CNC(=O)CSc1nc(N2CCC2)c(C#N)c(-c2ccc(OCCOC)cc2)c1C#N [Compound 78] |
| > 10000 nM | 2.05 nM | COCCOc1ccc(-c2c(C#N)c(Sc3cccnc3)nc(N3CC(F)C3)c2C#N)cc1 [Compound 245] |
| 401 nM | 1.5 nM | N#Cc1c(N)nc(SCC2COC2)c(C#N)c1-c1ccc(OCCO)cc1 [Compound 223] |
| > 10000 nM | 807 nM | N#Cc1c(OCC2COC2)nc(N2CCC2)c(C#N)c1-c1ccc(OC2COC2)cc1 [Compound 287, 2-(azetidin-1-yl)-6-(oxetan-3-ylmethoxy)-4-(4-(oxetan-3-yloxy)phenyl)pyridine-3,5-dicarbonitrile] |
| 2230 nM | > 10000 nM | Cc1ncccc1CSc1nc(N2CCC2)c(C#N)c(-c2ccc(OCCO)cc2)c1C#N [Compound 77] |
| > 10000 nM | 1020 nM | COCCOc1ccc(-c2c(C#N)c(N)nc(SCCC#N)c2C#N)cc1 [Compound 122] |
| 6 nM | 121 nM | N#Cc1c(N)nc(SCC(N)=O)c(C#N)c1-c1ccc(OCCO)cc1 [Compound 129] |
| 18 nM | 57 nM | N#Cc1c(N)nc(SCCO)c(C#N)c1-c1ccc(OCCO)cc1 [Compound 177] |
| > 10000 nM | 3090 nM | COCCOc1ccc(-c2c(C#N)c(SCc3cncnc3)nc(N3CCC3)c2C#N)cc1 [Compound 30] |
| > 10000 nM | 5.16 nM | CNc1nc(SCC2COC2)c(C#N)c(-c2ccc(OC3COC3)cc2)c1C#N [Compound 314] |
| > 10000 nM | 204 nM | N#Cc1c(N)nc(OCC2COC2)c(C#N)c1-c1ccc(OC2COC2)cc1 [Compound 312, 2-Amino-6-(oxetan-3-ylmethoxy)-4-(4-(oxetan-3-yloxy)phenyl)pyridine-3,5-dicarbonitrile] |
| > 10000 nM | 819 nM | COCCOc1ccc(-c2c(C#N)c(SCCO)nc(N3CCC3)c2C#N)cc1 [Compound 89] |
| 59 nM | 177 nM | CNC(=O)CSc1nc(N)c(C#N)c(-c2ccc(OCCOC)cc2)c1C#N [Compound 146] |
| > 10000 nM | 80 nM | COCCOc1ccc(-c2c(C#N)c(N)nc(SCc3cncnc3)c2C#N)cc1 [Compound 198] |
| > 10000 nM | > 10000 nM | CN(C)c1nc(SCc2cccnc2)c(C#N)c(-c2ccc(OCCOC(F)F)cc2)c1C#N [Compound 253] |
| 65 nM | 311 nM | CC(C)(O)COc1ccc(-c2c(C#N)c(SCc3cccnc3)nc(N3CCC3)c2C#N)cc1 [Compound 49] |
| > 10000 nM | 77 nM | COCCOc1ccc(-c2c(C#N)c(SCC3COC3)nc(N3CC(F)C3)c2C#N)cc1 [Compound 267] |
| > 10000 nM | > 10000 nM | COCCOc1ccc(-c2c(C#N)c(N)nc(S[C@@H](C)c3ccccn3)c2C#N)cc1 [Compound 244] |
